Measurements reported in US20140000476A1, “HYDROPHOBIC AND LIPOPHOBIC COMPOSITION COMPRISING COMPOUNDS HAVING A BISPHOSPHONIC AND THIOL GROUP” (SURFACTIS TECHNOLOGIES, priority 2010, published 2014).

Experiment: Contact angle on coated gold
Format: physicochemical
Details: molecule alone at 10^−3M, soaking 30 minutes
Description: Degrease the parts by washing in a solvent (acetone or IPA) under ultrasound for 5 minutes then dry the parts under a stream of hot air.
Deposit • Place the part or parts in a container with an adapted shape • Cover the part or parts with coating solution (thiol, BP or BP/thiol-PFPE mixture), • Incubate between 5 minutes and 360 minutes, • Eliminate the supernatant—remove the part, • The part is drip dried (centrifugation).
Dehydration—Rinsing • The part which received the deposit is placed in an oven at 120° C. for a period ranging from 6 to 15 h (only for rubies and silicon), • The part is brought back to room temperature then immersed in IPA under ultrasound for 2 minutes, • The part is dried under a stream of hot air. […]
The lipophobic effect was evaluated by measuring the contact angles of a test oil having surface tension of 33 mN/m on different surfaces.
According to the deposit procedure described in paragraph 3, the materials were treated by the mixture of the thiol molecule I.3. with the BP molecule II.1. dissolved in IPA. The contact angles were measured before and after treatment of the surface. […]
The properties of thiol and bisphosphonate molecules in isolation were measured on the surfaces of steel and gold-plated substrates using solutions at 10^−3 M and in isopropanol in accordance with the protocol described in example 3 above, with a soaking time of 5 minutes.

**Q.** Which “contact angle of the gold-plated brass part with the test oil” value (solvent IPA) does the source give for `O=C(NCCS)C(F)(F)C(F)(F)C(F)(F)C(F)(F)C(F)(F)C(F)(F)C(F)(F)F` [I.5] here?
**A.** 67.6 ± 3.6°

**Q.** What about the “contact angle of the gold-plated brass part with the test oil” value (solvent MMCC (Biosane T212)) of the same compound?
**A.** 49.5 ± 2.5°
